Assays:
[1] = tested on: human squamous cell carcinoma xenografts; assay: Biodistribution in nude mice xenografted with human squamous cell carcinoma; assay type: in vivo, Balb/c nu/nu mice; conditions: for Biodistribution Blood / Biodistribution Bone / Biodistribution Brain / Biodistribution Heart / Biodistribution Intestine / Biodistribution Kidney / Biodistribution Liver / Biodistribution Lung / Biodistribution Spleen / Biodistribution Stomach / Biodistribution Thyroid / Biodistribution Tumor: nude mice, human squamous cell carcinoma, mean (std. dev.), n = 6
Protocol: Non-small cell lung carcinoma cell lines NCI-157, NCI-838 and NCI-1299 were obtained from the National Cancer Institute. The NCI-157 cell line is a squamous carcinoma cell line, while NCI-838 is an adenocarcinoma cell line and NCI-1299 is a large cell lung carcinoma cell. […] Suspension of 5×10^6 cells (viability greater than 95%) in 0.2 mL of medium were inoculated subcutaneously in female Balb/c nu/nu mice. After about two weeks, solid tumors of about 1 cm in diameter appeared in approximately 85% of all inoculated mice. […] Balb/c nu/nu mice (17-22 g) were injected intravenously with 0.2 ml of a saline solution containing [^125I]PAB (5-6 μCi). […] The values obtained were normalized to a mouse weighing 20 g.

[2] = tested on: human A2058 melanoma xenografts; assay: Biodistribution in nude mice xenografted with human melanotic melanoma; assay type: in vivo, Balb/c nu/nu mice; conditions: for RATIO Tumor/Blood / RATIO Tumor/Muscle / Biodistribution Blood / Biodistribution Bone / Biodistribution Brain / Biodistribution Heart / Biodistribution Intestine / Biodistribution Kidney / Biodistribution Liver / Biodistribution Lung / Biodistribution Muscle / Biodistribution Spleen / Biodistribution Stomach / Biodistribution Thyroid / Biodistribution Tumor: nude mice, human melanotic melanoma, mean (std. dev.); for Biodistribution Blood / Biodistribution Bone / Biodistribution Brain / Biodistribution Heart / Biodistribution Intestine / Biodistribution Kidney / Biodistribution Liver / Biodistribution Lung / Biodistribution Muscle / Biodistribution Spleen / Biodistribution Stomach / Biodistribution Thyroid / Biodistribution Tumor: n = 6
Protocol: A2058 tumor cells, derived from a brain metastasis of human malignant melanoma (Todaro et al. 1980 Proc. Natl. Acad. Sci. USA 77:5258) were obtained from the National Institutes of Health. […] Suspension of 5×10^6 cells (viability greater than 95%) in 0.2 mL of medium were inoculated subcutaneously in female Balb/c nu/nu mice. After about two weeks, solid tumors of about 1 cm in diameter appeared in approximately 85% of all inoculated mice. […] Balb/c nu/nu mice (17-22 g) were injected intravenously with 0.2 ml of a saline solution containing [^125I]PAB (5-6 μCi). […] The values obtained were normalized to a mouse weighing 20 g. The differences between [^125I]PAB and [^125I]DAB were examined by Student's unpaired t tests.

Biodistribution Blood ([1]; 1 hr.): 1.35 (0.42) % ID/g | Biodistribution Bone ([1]; 1 hr.): 1.85 (0.22) % ID/g | Biodistribution Brain ([1]; 1 hr.): 1.57 (0.05) % ID/g | Biodistribution Heart ([1]; 1 hr.): 2.21 (0.16) % ID/g | Biodistribution Intestine ([1]; 1 hr.): 5.64 (0.58) % ID/g | Biodistribution Kidney ([1]; 1 hr.): 7.64 (0.35) % ID/g | Biodistribution Liver ([1]; 1 hr.): 13.77 (0.72) % ID/g | Biodistribution Lung ([1]; 1 hr.): 6.38 (0.89) % ID/g | Biodistribution Spleen ([1]; 1 hr.): 3.58 (0.28) % ID/g | Biodistribution Stomach ([1]; 1 hr.): 5.41 (0.53) % ID/g | Biodistribution Thyroid ([1]; 1 hr.): 8.22 (0.72) % ID/g | Biodistribution Tumor ([1]; 1 hr.): 5.13 (0.74) % ID/g | Biodistribution Blood ([1]; 6 hr.): 0.301 (0.04) % ID/g | Biodistribution Bone ([1]; 6 hr.): 0.21 (0.01) % ID/g | Biodistribution Brain ([1]; 6 hr.): 0.23 (0.05) % ID/g | Biodistribution Heart ([1]; 6 hr.): 0.38 (0.11) % ID/g | Biodistribution Intestine ([1]; 6 hr.): 1.34 (0.27) % ID/g | Biodistribution Kidney ([1]; 6 hr.): 1.07 (0.16) % ID/g | Biodistribution Liver ([1]; 6 hr.): 5.84 (0.51) % ID/g | Biodistribution Lung ([1]; 6 hr.): 1.07 (0.14) % ID/g | Biodistribution Spleen ([1]; 6 hr.): 0.51 (0.08) % ID/g | Biodistribution Stomach ([1]; 6 hr.): 2.7 (0.98) % ID/g | Biodistribution Thyroid ([1]; 6 hr.): 1.48 (0.55) % ID/g | Biodistribution Tumor ([1]; 6 hr.): 2.17 (0.09) % ID/g | Biodistribution Blood ([1]; 24 hr.): 0.027 (0.00) % ID/g | Biodistribution Brain ([1]; 24 hr.): 0.00 (0.00) % ID/g | Biodistribution Heart ([1]; 24 hr.): 0.00 (0.00) % ID/g | Biodistribution Intestine ([1]; 24 hr.): 0.05 (0.01) % ID/g | Biodistribution Kidney ([1]; 24 hr.): 0.05 (0.00) % ID/g | Biodistribution Liver ([1]; 24 hr.): 1.25 (0.10) % ID/g | Biodistribution Lung ([1]; 24 hr.): 0.03 (0.00) % ID/g | Biodistribution Spleen ([1]; 24 hr.): 0.01 (0.00) % ID/g | Biodistribution Stomach ([1]; 24 hr.): 0.15 (0.02) % ID/g | Biodistribution Thyroid ([1]; 24 hr.): 0.03 (0.01) % ID/g | Biodistribution Tumor ([1]; 24 hr.): 0.18 (0.02) % ID/g | amount in livers relative to tumors ([1]; 24 hrs., squamous cell carcinoma xenograft): about six-fold | RATIO Tumor/Blood ([2]; 1 Hour): 5.68 (2.75) | RATIO Tumor/Muscle ([2]; 1 Hour): 5.33 (1.65) | Biodistribution Blood ([2]; 1 Hour): 1.03 (.318) % ID/g | Biodistribution Bone ([2]; 1 Hour): 1.04 (.476) % ID/g | Biodistribution Brain ([2]; 1 Hour): 1.04 (.0855) % ID/g | Biodistribution Heart ([2]; 1 Hour): 1.67 (.210) % ID/g | Biodistribution Intestine ([2]; 1 Hour): 5.04 (1.47) % ID/g | Biodistribution Kidney ([2]; 1 Hour): 4.63 (.905) % ID/g | Biodistribution Liver ([2]; 1 Hour): 12.7 (1.69) % ID/g | Biodistribution Lung ([2]; 1 Hour): 6.32 (1.55) % ID/g | Biodistribution Muscle ([2]; 1 Hour): 0.988 (.125) % ID/g | Biodistribution Spleen ([2]; 1 Hour): 3.46 (.206) % ID/g | Biodistribution Stomach ([2]; 1 Hour): 3.84 (1.98) % ID/g | Biodistribution Thyroid ([2]; 1 Hour): 5.68 (1.02) % ID/g | Biodistribution Tumor ([2]; 1 Hour): 5.18 (1.31) % ID/g | RATIO Tumor/Blood ([2]; 6 Hour): 28.1 (5.84) | RATIO Tumor/Muscle ([2]; 6 Hour): 33.3 (14.0) | Biodistribution Blood ([2]; 6 Hour): 1.03 (0.197) % ID/g | Biodistribution Bone ([2]; 6 Hour): 0.100 (.0297) % ID/g | Biodistribution Brain ([2]; 6 Hour): 0.132 (.0204) % ID/g | Biodistribution Heart ([2]; 6 Hour): 0.150 (.0329) % ID/g | Biodistribution Intestine ([2]; 6 Hour): 0.423 (.0963) % ID/g | Biodistribution Kidney ([2]; 6 Hour): 0.435 (.0909) % ID/g | Biodistribution Liver ([2]; 6 Hour): 3.74 (.427) % ID/g | Biodistribution Lung ([2]; 6 Hour): 0.458 (.0993) % ID/g | Biodistribution Muscle ([2]; 6 Hour): 0.0967 (.0356) % ID/g | Biodistribution Spleen ([2]; 6 Hour): 0.260 (.0990) % ID/g | Biodistribution Stomach ([2]; 6 Hour): 0.475 (.164) % ID/g | Biodistribution Thyroid ([2]; 6 Hour): 0.400 (.124) % ID/g | Biodistribution Tumor ([2]; 6 Hour): 2.83 (.388) % ID/g | RATIO Tumor/Blood ([2]; 24 Hour): 15.5 (4.69) | RATIO Tumor/Muscle ([2]; 24 Hour): 39.7 (9.61) | Biodistribution Blood ([2]; 24 Hour): 0.0350 (0.0084) % ID/g | Biodistribution Bone ([2]; 24 Hour): 0.0133 (.0052) % ID/g | Biodistribution Brain ([2]; 24 Hour): 0.0033 (.0052) % ID/g | Biodistribution Heart ([2]; 24 Hour): 0.0233 (.0175) % ID/g | Biodistribution Intestine ([2]; 24 Hour): 0.123 (.0717) % ID/g | Biodistribution Kidney ([2]; 24 Hour): 0.065 (.0197) % ID/g | Biodistribution Liver ([2]; 24 Hour): 1.12 (.232) % ID/g | Biodistribution Lung ([2]; 24 Hour): 0.0633 (.0273) % ID/g | Biodistribution Muscle ([2]; 24 Hour): 0.0150 (.0084) % ID/g | Biodistribution Spleen ([2]; 24 Hour): 0.0350 (.023) % ID/g | Biodistribution Stomach ([2]; 24 Hour): 0.445 (.386) % ID/g | Biodistribution Tumor ([2]; 24 Hour): 0.553 (.241) % ID/g | amount in tumors relative to livers ([2]; 24 hrs., melanoma xenograft): about half
Structure (SMILES): CCN(CC)CCNC(=O)c1ccc([125I])cc1 [[^125I]DAB, ^125I-N-(diethylaminoethyl)4-iodobenzamide, reference compound]

Source: patent publication US6447748B1, “Benzamide compounds for cancer imaging and therapy” (Research Corporation Technologies, Inc., priority 1993, dated 2002)
